Laboratory results from PubChem BioAssay (NCI).
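Five compound concentrations were applied to cells in 96-well plates for 48 hours; endpoints were derived by simple linear interpolation of the resulting dose-response curve. GI50 marks 50% less growth. The concentration for full growth arrest is given as TGI.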

Legend:
Experiment in all cases: NCI anticancer screen, dose series, 48 h
HOP-92 NSCLC = system: HOP-92 NSCLC
TK-10 renal = system: TK-10 renal
MOLT-4 leukemia = system: MOLT-4 leukemia
SF-295 CNS = system: SF-295 CNS
A549 NSCLC = system: A549 NSCLC
NCI-H226 lung = system: NCI-H226 lung
SK-OV-3 ovarian = system: SK-OV-3 ovarian
OVCAR-8 ovarian = system: OVCAR-8 ovarian
MDA-MB-231 breast = system: MDA-MB-231 breast
K-562 leukemia = system: K-562 leukemia

| SMILES | TGI (HOP-92 NSCLC) [µM] | GI50 (TK-10 renal) [µM] | TGI (TK-10 renal) [µM] | GI50 (MOLT-4 leukemia) [µM] | TGI (MOLT-4 leukemia) [µM] | GI50 (SF-295 CNS) [µM] | TGI (SF-295 CNS) [µM] | GI50 (A549 NSCLC) [µM] | TGI (A549 NSCLC) [µM] | GI50 (NCI-H226 lung) [µM] | TGI (NCI-H226 lung) [µM] | GI50 (SK-OV-3 ovarian) [µM] | TGI (SK-OV-3 ovarian) [µM] | GI50 (OVCAR-8 ovarian) [µM] | TGI (OVCAR-8 ovarian) [µM] | GI50 (MDA-MB-231 breast) [µM] | TGI (MDA-MB-231 breast) [µM] | GI50 (K-562 leukemia) [µM] | TGI (K-562 leukemia) [µM] | GI50 (HOP-92 NSCLC) [µM] |
| --- | --- | --- | --- | --- | --- | --- | --- | --- | --- | --- | --- | --- | --- | --- | --- | --- | --- | --- | --- | --- |
| C#Cc1cnc(=O)n(C2CC(O)C(CO)O2)c1 (stereo not drawn) | > 43.2 | > 100 | > 100 | 98.9 | > 100 | > 100 | > 100 | > 100 | > 100 | > 100 | > 100 | > 100 | > 100 | > 100 | > 100 | > 100 | > 100 | > 100 | > 100 |  |
| CN1CCN(Cc2ccc(C(=O)Nc3cncc(C#Cc4cnc(N)c5ccccc45)c3)cc2C(F)(F)F)CC1 | 11.3 | 1.99 | 3.74 | 2.17 | 5.31 | 1.86 | 3.46 | 1.94 | 3.85 | 3.18 | 27.5 | 10.8 | 22.9 | 2.32 | 5.38 | 1.37 | 2.87 |  | 1.15 | 2.42 |
| NC(N)=N/N=C(/c1ccccc1)c1ccc(F)cc1 | 31.4 | 0.506 | 18.4 | 2.67 | > 38.1 | 0.243 | 2.25 | 0.512 | > 34.6 | 1.06 | 14.5 | 0.371 | 12.8 | 0.593 | > 35.1 | 0.649 | 14 | 0.38 | 27.7 | 0.984 |
| COc1cc(C(=O)NC2c3ccccc3-c3ccccc32)c(N)cc1OCc1ccccc1 | 33.6 | 26.2 | 69.6 | > 78.4 | > 100 | 15.4 | 41 | 17.9 | > 100 | 11.4 | 44.3 | 16.9 | 43.8 | 24.2 | > 100 | 17.2 | 47.1 | 15.9 | > 100 | 14.2 |
| N/C(CC(=O)Nc1cc(C(F)(F)F)ccc1Cl)=N\O | > 100 |  | > 100 |  | > 100 |  | > 100 |  | > 100 |  | > 100 |  | > 100 |  | > 100 |  | > 100 |  | > 100 |  |
| COc1cccc(/C=C/C(=O)c2cc3c(N)c(C(=O)Nc4ccccc4C)sc3nc2C)c1 | 2.72 | 1.55 | 6.21 | 1.49 | 27.8 | 2.26 | 15.9 | 1.53 | 6.29 | 1.07 | 2.92 | 5.03 | 38.8 | 1.26 | > 50 | 1.46 | 4.08 | 1.42 | > 50 | 0.823 |
| CC(C)(C)c1cc(O)c(O)c(C(C)(C)C)c1 | 4.6 | 3.08 | 7.4 | 3.03 | 8.67 | 3.53 | 14.4 | 3.49 | 12.2 | 6.35 | 22.8 | 10.3 | 22.6 | 3.48 | 16.4 | 8.55 | 23.2 | 2.47 | 7.44 | 1.36 |
